What all share (assay type): biochemical
One test deals with T1, JAK1 (Homo sapiens, UniProt P23458).
T1 construct: purchased Carna Biosciences, Inc
Put plainly: JAK tyrosine kinase inhibitory activity in the presence of 1 mM ATP (ELISA), JAK1. The method in brief: (§1)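 Recombinant kinase (7.5 nM JAK1; 0.75 nM JAK2, JAK3 working dilutions) reacted 1 h at 30 °C with 1 mM ATP in Tris-HCl pH 7.5, Tween-20, DTT, on streptavidin plates. Phosphotyrosine detected by HRP anti-pTyr antibody ELISA, TMB absorbance at 450 nm; duplicate wells, DMSO as negative control.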
Background: An ELISA detects its analyte on a solid surface through an enzyme-linked reagent.

In a further test the target is T2, JAK2 (Homo sapiens, UniProt O60674).
T2 construct: purchased Carna Biosciences, Inc
Put plainly: JAK tyrosine kinase inhibitory activity in the presence of 1 mM ATP (ELISA), JAK2. Summed up:
as §1

The next test has as its target T3, JAK3 (Homo sapiens, UniProt P52333).
T3 construct: purchased Carna Biosciences, Inc
T3 sequence (P52333 1-1124): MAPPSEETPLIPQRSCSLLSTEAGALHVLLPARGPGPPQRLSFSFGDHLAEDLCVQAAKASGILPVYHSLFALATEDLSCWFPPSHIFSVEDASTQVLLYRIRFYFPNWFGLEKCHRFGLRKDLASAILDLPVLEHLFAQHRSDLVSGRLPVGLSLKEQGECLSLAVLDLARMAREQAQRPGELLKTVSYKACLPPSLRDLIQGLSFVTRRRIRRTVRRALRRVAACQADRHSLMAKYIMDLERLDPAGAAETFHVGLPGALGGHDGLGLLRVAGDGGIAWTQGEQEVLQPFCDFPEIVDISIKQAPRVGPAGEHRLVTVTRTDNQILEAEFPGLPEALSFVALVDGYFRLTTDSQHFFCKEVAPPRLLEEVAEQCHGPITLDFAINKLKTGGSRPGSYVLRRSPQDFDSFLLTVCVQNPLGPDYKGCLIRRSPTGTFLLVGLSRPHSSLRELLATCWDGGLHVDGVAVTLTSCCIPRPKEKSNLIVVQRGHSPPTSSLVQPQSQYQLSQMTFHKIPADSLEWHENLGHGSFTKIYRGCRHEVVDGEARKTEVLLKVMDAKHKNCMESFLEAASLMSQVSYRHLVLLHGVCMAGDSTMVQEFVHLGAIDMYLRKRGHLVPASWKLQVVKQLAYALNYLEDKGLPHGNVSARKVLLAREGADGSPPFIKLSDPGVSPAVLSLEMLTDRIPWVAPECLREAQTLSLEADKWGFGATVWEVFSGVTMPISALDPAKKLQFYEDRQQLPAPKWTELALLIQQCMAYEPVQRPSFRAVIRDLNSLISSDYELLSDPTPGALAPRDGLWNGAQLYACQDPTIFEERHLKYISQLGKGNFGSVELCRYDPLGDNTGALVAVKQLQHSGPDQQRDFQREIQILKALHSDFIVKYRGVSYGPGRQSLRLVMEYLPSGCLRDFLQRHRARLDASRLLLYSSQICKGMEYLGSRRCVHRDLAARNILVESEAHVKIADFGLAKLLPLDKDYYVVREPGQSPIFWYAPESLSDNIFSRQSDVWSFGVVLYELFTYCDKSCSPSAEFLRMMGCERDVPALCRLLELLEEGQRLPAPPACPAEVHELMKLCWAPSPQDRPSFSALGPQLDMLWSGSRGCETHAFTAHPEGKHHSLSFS
Put plainly: JAK tyrosine kinase inhibitory activity in the presence of 1 mM ATP (ELISA), JAK3. The method in brief:
as §1

Some results are limits rather than exact numbers.

T1 sequence (P23458 whole entry): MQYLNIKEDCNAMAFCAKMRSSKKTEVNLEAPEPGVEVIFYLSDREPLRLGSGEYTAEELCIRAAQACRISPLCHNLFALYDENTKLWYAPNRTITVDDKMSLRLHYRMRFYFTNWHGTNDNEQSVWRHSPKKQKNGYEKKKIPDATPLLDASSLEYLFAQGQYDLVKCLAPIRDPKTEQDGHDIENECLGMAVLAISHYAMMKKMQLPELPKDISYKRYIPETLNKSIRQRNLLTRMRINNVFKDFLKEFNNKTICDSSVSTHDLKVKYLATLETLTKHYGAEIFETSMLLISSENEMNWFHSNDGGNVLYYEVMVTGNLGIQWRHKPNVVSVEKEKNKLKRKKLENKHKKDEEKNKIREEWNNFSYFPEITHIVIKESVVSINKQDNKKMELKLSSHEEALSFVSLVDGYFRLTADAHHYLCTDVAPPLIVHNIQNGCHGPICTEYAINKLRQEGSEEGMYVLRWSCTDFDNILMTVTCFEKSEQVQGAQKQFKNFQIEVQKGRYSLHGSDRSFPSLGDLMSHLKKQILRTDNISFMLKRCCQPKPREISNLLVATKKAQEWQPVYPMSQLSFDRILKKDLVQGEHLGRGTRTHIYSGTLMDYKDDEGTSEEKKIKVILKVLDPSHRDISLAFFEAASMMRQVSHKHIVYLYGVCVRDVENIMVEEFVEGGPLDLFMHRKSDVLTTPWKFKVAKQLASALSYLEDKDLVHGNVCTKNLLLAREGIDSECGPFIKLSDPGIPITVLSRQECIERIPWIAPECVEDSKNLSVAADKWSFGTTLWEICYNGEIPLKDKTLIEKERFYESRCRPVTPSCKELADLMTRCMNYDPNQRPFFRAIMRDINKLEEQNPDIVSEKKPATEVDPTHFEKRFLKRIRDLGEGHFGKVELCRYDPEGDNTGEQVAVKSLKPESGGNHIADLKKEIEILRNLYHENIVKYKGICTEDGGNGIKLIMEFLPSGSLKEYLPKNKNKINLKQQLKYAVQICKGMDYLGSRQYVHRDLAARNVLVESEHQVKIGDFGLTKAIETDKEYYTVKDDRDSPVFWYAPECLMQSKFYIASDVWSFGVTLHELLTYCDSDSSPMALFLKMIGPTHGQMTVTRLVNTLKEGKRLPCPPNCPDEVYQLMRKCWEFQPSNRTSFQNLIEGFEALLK
T2 sequence (O60674 whole entry): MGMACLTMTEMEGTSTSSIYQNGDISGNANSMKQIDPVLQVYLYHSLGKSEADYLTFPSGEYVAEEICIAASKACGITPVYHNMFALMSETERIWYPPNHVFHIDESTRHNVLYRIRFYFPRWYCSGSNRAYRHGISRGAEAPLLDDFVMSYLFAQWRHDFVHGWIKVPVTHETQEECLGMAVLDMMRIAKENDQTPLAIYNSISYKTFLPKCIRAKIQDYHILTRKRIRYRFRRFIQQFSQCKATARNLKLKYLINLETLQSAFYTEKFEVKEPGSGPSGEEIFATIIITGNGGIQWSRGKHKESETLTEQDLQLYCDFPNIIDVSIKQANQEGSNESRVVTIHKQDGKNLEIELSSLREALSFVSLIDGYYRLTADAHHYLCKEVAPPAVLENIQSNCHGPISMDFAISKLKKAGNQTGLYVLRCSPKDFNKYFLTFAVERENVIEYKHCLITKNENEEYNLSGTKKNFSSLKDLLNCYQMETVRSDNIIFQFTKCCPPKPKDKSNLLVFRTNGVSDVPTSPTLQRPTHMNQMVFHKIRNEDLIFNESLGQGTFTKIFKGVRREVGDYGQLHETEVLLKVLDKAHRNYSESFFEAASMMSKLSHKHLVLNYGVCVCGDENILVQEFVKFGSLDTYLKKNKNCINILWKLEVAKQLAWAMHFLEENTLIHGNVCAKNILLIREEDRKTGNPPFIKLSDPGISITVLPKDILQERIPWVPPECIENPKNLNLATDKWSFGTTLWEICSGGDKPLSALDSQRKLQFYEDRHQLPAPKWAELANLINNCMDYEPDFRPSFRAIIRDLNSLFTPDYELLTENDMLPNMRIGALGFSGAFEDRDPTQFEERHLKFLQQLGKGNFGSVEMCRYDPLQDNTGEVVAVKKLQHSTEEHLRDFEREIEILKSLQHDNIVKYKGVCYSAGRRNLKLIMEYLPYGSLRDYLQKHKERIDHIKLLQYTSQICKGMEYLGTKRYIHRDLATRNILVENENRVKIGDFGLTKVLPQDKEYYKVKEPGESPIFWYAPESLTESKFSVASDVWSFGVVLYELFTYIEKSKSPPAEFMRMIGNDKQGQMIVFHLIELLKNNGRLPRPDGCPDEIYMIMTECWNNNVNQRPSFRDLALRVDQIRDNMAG

As a reminder, the IC50 is the point on the concentration scale where inhibition reaches its midpoint. Consider `O=C(NC1CCN(C(=O)c2cc(NCC3CNC3)nc(-c3cnn4ccsc34)n2)CC1)C1CC1` [Example 78, N-[1-({6-[(Azetidin-3-ylmethyl)amino]-2-(pyrazolo[5,1-b][1,3]thiazol-7-yl)pyrimidin-4-yl}carbonyl)piperidin-4-yl]cyclopropanecarboxamide], for which the figures for the IC50 on JAK1, on JAK2 and on JAK3 were 4100 nM, more than 10000 nM and more than 10000 nM, respectively.

`CCC(=O)NC1CCN(C(=O)c2cc(N(C)C(CC)CC)nc(-c3cnn4ccsc34)n2)CC1` [Example 116, N-[1-({6-[Methyl(pentan-3-yl)amino]-2-(pyrazolo[5,1-b][1,3]thiazol-7-yl)pyrimidin-4-yl}carbonyl)piperidin-4-yl]propanamide]: the half-maximal inhibitory concentration (IC50) on JAK1 was 210 nM; at JAK2, 1900 nM; at JAK3 it was 3800 nM.

`CCCOC(=O)NC1CCN(C(=O)c2cc(NC(C)(C)C)nc(-c3cnn4ccsc34)n2)CC1` [Example 82, Propyl (1-{[6-(tert-butylamino)-2-(pyrazolo[5,1-b][1,3]thiazol-7-yl)pyrimidin-4-yl]carbonyl}piperidin-4-yl)carbamate]: the concentration for half-maximal inhibition (IC50) is 58 nM at JAK1, 9700 nM at JAK2 and 5800 nM on JAK3.

As for `CCC(CC)Nc1cc(C(=O)N2CCC(NC(=O)COC)CC2)nc(-c2cnn3ccsc23)n1` [Example 106, 2-Methoxy-N-(1-{[6-(pentan-3-ylamino)-2-(pyrazolo[5,1-b][1,3]thiazol-7-yl)pyrimidin-4-yl]carbonyl}piperidin-4-yl)acetamide], the results for the IC50 on JAK1, at JAK2 and at JAK3 were 600 nM, 1300 nM and 2800 nM, respectively.

Take `CS(=O)(=O)N1CCC(Nc2cc(C(=O)N3CCC(NC(=O)C4CC4)CC3)nc(-c3cnn4ccsc34)n2)CC1` [Example 189, N-1-[6-[1-(methanesulfonyl)piperidin-4-yl]amino-2-(pyrazolo[5,1-b][1,3]thiazol-7-yl)pyrimidine-4-carbonyl]piperidin-4-ylcyclopropanecarboxamide]: the half-maximal inhibitory concentration (IC50) at JAK1 is 1100 nM; on JAK2 it was more than 10000 nM; on JAK3 it was more than 10000 nM.

As to `CC(=O)NC1CCN(C(=O)c2cc(N[C@@H](C)C(C)(C)C)nc(-c3cnn4ccsc34)n2)CC1` [Example 4, N-(1-{[6-{[(2S)-3,3-Dimethylbutan-2-yl]amino}-2-(pyrazolo[5,1-b][1,3]thiazol-7-yl)pyrimidin-4-yl]carbonyl}piperidin-4-yl)acetamide], the results for the half-maximal inhibitory concentration (IC50) on JAK1, on JAK2 and at JAK3 were 210 nM, 730 nM and 3000 nM, respectively.

Consider `CC(Nc1cc(C(=O)N2CCC(NC(=O)C3CC3)CC2)nc(-c2cnn3ccsc23)n1)c1ccncc1` (stereo not drawn) [Example 170, N-1-[2-(pyrazolo[5,1-b][1,3]thiazol 7 yl) 6 [1-(pyridin-4-yl)ethyl]aminopyrimidine-4-carbonyl]piperidin-4-ylcyclopropanecarboxamide], for which the concentration for half-maximal inhibition (IC50) on JAK1 is 1600 nM; at JAK2, more than 10000 nM; at JAK3, more than 10000 nM.

As for `CN(C)C(=O)NC1CCN(C(=O)c2cc(NCC(C)(C)C)nc(-c3cnn4ccsc34)n2)CC1` [Example 137, 3-[1-({6-[(2,2-Dimethylpropyl)amino]-2-(pyrazolo[5,1-b][1,3]thiazol-7-yl)pyrimidin-4-yl}carbonyl)piperidin-4-yl]-1,1-dimethylurea], the results for the IC50 on JAK1, on JAK2 and at JAK3 were 640 nM, 1400 nM and 4200 nM, respectively.

On to `CCC(CC)N(C)c1cc(C(=O)N2CCC(NC(=O)OC)CC2)nc(-c2cnn3ccsc23)n1` [Example 112, Methyl [1-({6-[methyl(pentan-3-yl)amino]-2-(pyrazolo[5,1-b][1,3]thiazol-7-yl)pyrimidin-4-yl}carbonyl)piperidin-4-yl]carbamate], for which the IC50 turned out to be 350 nM on JAK1, 3500 nM on JAK2 and 2900 nM on JAK3.

With `O=C(NC1CCN(C(=O)c2cc(NC3COC3)nc(-c3cnn4ccsc34)n2)CC1)C1CC1` [Example 173, N-(1-6-[(oxetan-3-yl)amino]-2-(pyrazolo[5,1-b][1,3]thiazol-7-yl)pyrimidine-4-carbonylpiperidin-4-yl)cyclopropanecarboxamide], the values for the half-maximal inhibitory concentration (IC50) at JAK1, on JAK2 and on JAK3 were 3400 nM, more than 10000 nM and more than 10000 nM, respectively.

With `O=C(NC1CCN(C(=O)c2cc(OCC3CC3)nc(-c3cnn4ccsc34)n2)CC1)C1CC1` [Example 43, N-(1-{[6-(Cyclopropylmethoxy)-2-(pyrazolo[5,1-b][1,3]thiazol-7-yl)pyrimidin-4-yl]carbonyl}piperidin-4-yl)cyclopropanecarboxamide], the IC50 on JAK1 was 130 nM; at JAK2, more than 10000 nM; on JAK3, more than 10000 nM.

With `CC1(Nc2cc(C(=O)N3CCC(NC(=O)C4CC4)CC3)nc(-c3cnn4ccsc34)n2)CC1` [Example 37, N-[1-({6-[(1-Methylcyclopropyl)amino] 2 (pyrazolo[5,1-b][1,3]thiazol-7-yl)pyrimidin-4-yl}carbonyl)piperidin-4-yl]cyclopropanecarboxamide], the IC50 on JAK1 is 240 nM; on JAK2, 1600 nM; on JAK3 it was more than 10000 nM.

Regarding `COC(=O)NC1CCN(C(=O)c2cc(NC(C3CC3)C3CC3)nc(-c3cnn4ccsc34)n2)CC1` [Example 140, Methyl [1-({6-[(dicyclopropylmethyl)amino]-2-(pyrazolo[5,1-b][1,3]thiazol-7-yl)pyrimidin-4-yl}carbonyl)piperidin-4-yl]carbamate], the IC50 amounted to 280 nM on JAK1, 770 nM on JAK2 and 340 nM at JAK3.

Take `CC(C)(C)Nc1cc(C(=O)N2CCC(Nc3ccccn3)CC2)nc(-c2cnn3ccsc23)n1` [Example 72, [6-(tert-Butylamino)-2-(pyrazolo[5,1-b][1,3]thiazol-7-yl)pyrimidin-4-yl][4-(pyridin-2-ylamino)piperidin-1-yl]methanone]: the IC50 at JAK1 was 310 nM; on JAK2 it was 6100 nM; on JAK3 it was 5900 nM.

For `COC(=O)NC1CCN(C(=O)c2cc(NC(C)(C)C)nc(-c3cnn4ccsc34)n2)CC1` [Example 59, Methyl (1-{[6-(tert-butylamino)-2-(pyrazolo[5,1-b][1,3]thiazol-7-yl)pyrimidin-4-yl]carbonyl}piperidin-4-yl)carbamate], the concentration for half-maximal inhibition (IC50) came to 140 nM on JAK1, 3900 nM at JAK2 and 5600 nM on JAK3.

With `COC(=O)NC1CCN(C(=O)c2cc(N[C@H](C)c3ccc(F)cc3)nc(-c3cnn4ccsc34)n2)CC1` [Example 77, Methyl (1-{[6-{[(1R)-1-(4-fluorophenyl)ethyl]amino}-2-(pyrazolo[5,1-b][1,3]thiazol-7-yl)pyrimidin-4-yl]carbonyl}piperidin-4-yl)carbamate], the half-inhibitory concentration (IC50) on JAK1 was 980 nM; on JAK2 it was 3200 nM; on JAK3, more than 10000 nM.

Turning to `C[C@H](Nc1cc(C(=O)N2CCC(Nc3nccs3)CC2)nc(-c2cnn3ccsc23)n1)C1CC1` [Example 50, [6-{[(1S)-1-Cyclopropylethyl]amino}-2-(pyrazolo[5,1-b][1,3]thiazol-7-yl)pyrimidin-4-yl][4-(1,3-thiazol-2-ylamino)piperidin-1-yl]methanone], the IC50 at JAK1 is 150 nM; at JAK2, 2000 nM; at JAK3, 2500 nM.

Consider `CC(C)C(=O)NC1CCN(C(=O)c2cc(NC(C)(C)C)nc(-c3cnn4ccsc34)n2)CC1` [Example 69, N-(1-{[6-(tert-Butylamino)-2-(pyrazolo[5,1-b][1,3]thiazol-7-yl)pyrimidin-4-yl]carbonyl}piperidin-4-yl)-2-methylpropanamide], for which the IC50 amounted to 810 nM on JAK1, 3500 nM at JAK2 and 5700 nM at JAK3.

As to `CC(C)[C@@H](C)Nc1cc(C(=O)N2CCC(NC(=O)C(F)F)CC2)nc(-c2cnn3ccsc23)n1` [Example 136, 2,2-Difluoro-N-(1-{[6-{[(2R)-3-methylbutan-2-yl]amino}-2-(pyrazolo[5,1-b][1,3]thiazol-7-yl)pyrimidin-4-yl]carbonyl}piperidin-4-yl)acetamide], the values for the IC50 on JAK1, on JAK2 and on JAK3 were 490 nM, 1400 nM and 3500 nM, respectively.

Values taken from US9999622B2, “Pyrazolothiazole compound and medicine comprising same” (NIPPON SHINYAKU CO., LTD., priority 2014, dated 2018).
